The values that follow come from publication PMC9315260, “Diarylamine-Guided Carboxamide Derivatives: Synthesis, Biological Evaluation, and Potential Mechanism of Action” (Frontiers in Chemistry, 2022).

For data set [1], the system named is SGC-7901 (human gastric cancer cell line). Description: MTT in vitro cytotoxicity assay, SGC-7901. It is filed as cell-based. To be noted: for IC50: mean ± S.D.; for inhibition at 100 µM: SGC-7901, at 100 µM, read-out: Cell growth inhibition (%) SGC-7901. Here is the method: (§1) The lead molecules A2 and all newly prepared diarylamine derivatives B1-13 and C1-11 were evaluated for their in vitro cytotoxic effects against SGC-7901, A875, HepG2 and MARC145 cell lines by the classical MTT [3-(4,5-dimethylthiazol-2-yl)-2,5-diphenyl tetrazolium bromide] assay ([Alley et al., 1988]; [Ke et al., 2012]; [Shi et al., 2012]; [Yu et al., 2015]; [Ke et al., 2019]; [Xu et al., 2019]; [Huang et al., 2021]) using 5-FU (5-Fluorouracil) as a control.
(§2) The cytotoxicity of target compounds was determined with MTT assay ([Alley et al., 1988]; [Ke et al., 2012]; [Shi et al., 2012]; [Yu et al., 2015]; [Ke et al., 2019]; [Xu et al., 2019]; [Huang et al., 2021]). SGC-7901, A875, HepG2 and MARC145 cell lines were obtained from Hubei Biopesticide Engineering Research Centre. All data of the experiment were analyzed with SPSS software, and all assay were performed in triplicate on three independent experiments, and measurement data were expressed as the mean ± S.D.
(§3) The in vitro cytotoxicity of the synthesized compounds against different cell lines (SGC-7901, A875, HepG2 and MARC145) was measured with MTT assay. All the data of the experiment were analyzed with SPSS software, and the 50% inhibitory concentrations (IC50) of each compound for the different cell lines were determined. A control was run for each test, and all assays were performed in triplicate on three independent experiments, and measurement data were expressed as the mean ± S.D.

The test system of data set [2] is A875 (human melanoma cell line). Description: MTT in vitro cytotoxicity assay, A875. It is filed as cell-based. As to conditions: for IC50: mean ± S.D.; for inhibition at 100 µM: A875, at 100 µM, read-out: Cell growth inhibition (%) A875. Here is the method:
as §1, §2, §3

Data set [3] has as its system HepG2 (human hepatocellular liver carcinoma cell line). Description: MTT in vitro cytotoxicity assay, HepG2. To be noted: for IC50: mean ± S.D.; for inhibition at 100 µM: HepG2, at 100 µM, read-out: Cell growth inhibition (%) HepG2. It is filed as cell-based. Here is the method: as §1, §2, §3
The nature of data set [4]: MTT in vitro cytotoxicity assay, MARC145. It is filed as cell-based, African green monkey. As to conditions: African green monkey, MARC145 cells (kidney cell line, subclone of MA-104), MTT, mean ± S.D. The procedure: as §1, §2, §3
Data set [5] relates to MARC145 (subclone of African green monkey kidney cell line MA-104). Description: MTT in vitro cytotoxicity assay, MARC145. As to conditions: Chlorocebus sabaeus, MARC145; at 100 µM; read-out: Cell growth inhibition (%) MARC145. It is filed as cell-based. Here is the method:
as §1, §2, §3

Structures are written as SMILES.

The IC50 is the concentration needed to halve the response being measured. The term melting point denotes the temperature of the solid-liquid transition. Regarding `NC(=O)c1ccccc1NC(=O)c1ccccc1Nc1cccc(C(F)(F)F)c1` [B1, N-(2-Carbamoylphenyl)-2-((3-(trifluoromethyl)phenyl)amino)benzamide], the melting point lay in the range of 136 to 137 °C. The molecule also gave an IC50 in data set [1] (SGC-7901, Table 1, MTT) greater than 100 µM. In addition, the half-maximal inhibitory concentration (IC50) in data set [2] (A875, Table 1, MTT) was greater than 100 µM. In data set [3] (HepG2, Table 1, MTT), this molecule yielded a half-maximal inhibitory concentration (IC50) greater than 100 µM. Moreover, in data set [4] (Table 1), the IC50 is greater than 100 µM.
Regarding `CNC(=O)c1ccccc1NC(=O)c1ccccc1Nc1cccc(C(F)(F)F)c1` [B2, N-Methyl-2-(2-((3-(trifluoromethyl)phenyl)amino)benzamido)benzamide], the IC50 in data set [1] (SGC-7901, Table 1, MTT) is greater than 96 µM; in data set [2] (A875, Table 1, MTT), greater than 96 µM; in data set [3] (HepG2, Table 1, MTT), greater than 96 µM; in data set [4] (Table 1), greater than 96 µM.
Molecule `NC(=O)c1cc(F)cc(Br)c1NC(=O)c1ccccc1Nc1cccc(C(F)(F)F)c1` [B3, 3-Bromo-5-fluoro-2-(2-((3-(trifluoromethyl)phenyl)amino)benzamido)benzamide] gave a melting point of 198 to 199 °C. In data set [1] (SGC-7901, Table 1, MTT), this molecule showed a 50% inhibitory concentration (IC50) of 22.5 ± 4.04 µM. Moreover, the IC50 in data set [2] (A875, Table 1, MTT) is greater than 80 µM. The same molecule gave a concentration for half-maximal inhibition (IC50) in data set [3] (HepG2, Table 1, MTT) greater than 80 µM. The same molecule gave a 50% inhibitory concentration (IC50) in data set [4] (Table 1) of 38 ± 0.81 µM.
For the molecule `CNC(=O)c1cc(F)cc(Br)c1NC(=O)c1ccccc1Nc1cccc(C(F)(F)F)c1` [B4, 3-Bromo-5-fluoro-N-methyl-2-(2-((3-(trifluoromethyl)phenyl)amino)benzamido)benzamide], the melting point fell in the range of 189 to 190 °C. In addition, the IC50 in data set [1] (SGC-7901, Table 1, MTT) was greater than 78 µM. The molecule further returned an IC50 in data set [2] (A875, Table 1, MTT) greater than 78 µM. In data set [3] (HepG2, Table 1, MTT), the IC50 was greater than 78 µM. This molecule also showed an IC50 in data set [4] (Table 1) greater than 78 µM.
On to `Cc1cccc(C(N)=O)c1NC(=O)c1ccccc1Nc1cccc(C(F)(F)F)c1` [B5, N-(2-Carbamoyl-6-methylphenyl)-2-((3-(trifluoromethyl)phenyl)amino)benzamide], for which the IC50 in data set [1] (SGC-7901, Table 1, MTT) was greater than 97 µM; in data set [2] (A875, Table 1, MTT), greater than 97 µM; in data set [3] (HepG2, Table 1, MTT), greater than 97 µM; in data set [4] (Table 1), greater than 97 µM.
For the molecule `CNC(=O)c1cccc(C)c1NC(=O)c1ccccc1Nc1cccc(C(F)(F)F)c1` [B6, N,3-Dimethyl-2-(2-((3-(trifluoromethyl)phenyl)amino)benzamido)benzamide], the IC50 in data set [1] (SGC-7901, Table 1, MTT) is greater than 94 µM; in data set [2] (A875, Table 1, MTT), greater than 94 µM; in data set [3] (HepG2, Table 1, MTT), greater than 94 µM; in data set [4] (Table 1) it was greater than 94 µM.
With `NC(=O)c1ccc(Cl)cc1NC(=O)c1ccccc1Nc1cccc(C(F)(F)F)c1` [B7, N-(2-Carbamoyl-5-chlorophenyl)-2-((3-(trifluoromethyl)phenyl)amino)benzamide], the melting point lay in the range of 176 to 177 °C. This molecule yielded an IC50 in data set [1] (SGC-7901, Table 1, MTT) greater than 92 µM. For the same molecule, in data set [2] (A875, Table 1, MTT), the half-inhibitory concentration (IC50) was greater than 92 µM. The same molecule gave an IC50 in data set [3] (HepG2, Table 1, MTT) greater than 92 µM. In data set [4] (Table 1), this molecule registered an IC50 greater than 92 µM.
For the molecule `CNC(=O)c1ccc(Cl)cc1NC(=O)c1ccccc1Nc1cccc(C(F)(F)F)c1` [B8, 4-Chloro-N-methyl-2-(2-((3-(trifluoromethyl)phenyl)amino)benzamido)benzamide], the melting point was in the range of 152 to 153 °C. In data set [1] (SGC-7901, Table 1, MTT), this molecule registered a 50% inhibitory concentration (IC50) greater than 89 µM. Further, the half-maximal inhibitory concentration (IC50) in data set [2] (A875, Table 1, MTT) is greater than 89 µM. In data set [3] (HepG2, Table 1, MTT), this molecule came in with an IC50 greater than 89 µM. In data set [4] (Table 1), the IC50 is greater than 89 µM.
Take `NC(=O)c1cc(Cl)ccc1NC(=O)c1ccccc1Nc1cccc(C(F)(F)F)c1` [B9, N-(2-Carbamoyl-4-chlorophenyl) -2-((3-(trifluoromethyl)phenyl)amino)benzamide]: the IC50 in data set [1] (SGC-7901, Table 1, MTT) was greater than 92 µM; in data set [2] (A875, Table 1, MTT), greater than 92 µM; in data set [3] (HepG2, Table 1, MTT), greater than 92 µM; in data set [4] (Table 1) it was greater than 92 µM.
Molecule `CNC(=O)c1cc(Cl)ccc1NC(=O)c1ccccc1Nc1cccc(C(F)(F)F)c1` [B10, 5-Chloro-N-methyl-2-(2-((3-(trifluoromethyl)phenyl)amino)benzamido)benzamide] showed a melting point of 190 to 191 °C. In addition, the IC50 in data set [1] (SGC-7901, Table 1, MTT) amounted to 39.4 ± 8.96 µM. For the same molecule, the IC50 in data set [2] (A875, Table 1, MTT) is greater than 89 µM. The molecule also had a 50% inhibitory concentration (IC50) in data set [3] (HepG2, Table 1, MTT) of 49.9 ± 9.26 µM. Besides, it took 38 ± 9.84 µM to reach half-maximal inhibition in data set [4] (Table 1) (IC50).
Taken in the same sequence, the figures for `NC(=O)c1c(Cl)cccc1NC(=O)c1ccccc1Nc1cccc(C(F)(F)F)c1` [B11, N-(2-Carbamoyl-3-chlorophenyl)-2-((3-(trifluoromethyl)phenyl)amino)benzamide] were 194 to 195 °C, greater than 92 µM, greater than 92 µM, greater than 92 µM and greater than 92 µM.
Taken in the same sequence, the figures for `CNC(=O)c1c(Cl)cccc1NC(=O)c1ccccc1Nc1cccc(C(F)(F)F)c1` [B12, 2-Chloro-N-methyl-6-(2-((3-(trifluoromethyl)phenyl)amino)benzamido)benzamide] were 178 to 179 °C, greater than 89 µM, greater than 89 µM, greater than 89 µM and greater than 89 µM.
Consider `CNC(=O)c1cc(Cl)cc(Cl)c1NC(=O)c1ccccc1Nc1cccc(C(F)(F)F)c1` [B13, 3,5-Dichloro-N-methyl-2-(2-((3-(trifluoromethyl)phenyl)amino)benzamido)benzamide], for which the melting point was in the range of 180 to 181 °C. The IC50 in data set [1] (SGC-7901, Table 1, MTT) is greater than 83 µM. This molecule also displayed a half-inhibitory concentration (IC50) in data set [2] (A875, Table 1, MTT) greater than 83 µM. For the same molecule, the IC50 in data set [3] (HepG2, Table 1, MTT) was greater than 83 µM. This molecule displayed an IC50 in data set [4] (Table 1) greater than 83 µM.
By inhibition is commonly meant the percentage by which the read-out fell short of the control. Turning to `CC(C)c1ccc(NC(=O)c2ccccc2Nc2cccc(C(F)(F)F)c2)cc1` [C1, N-(4-Isopropylphenyl)-2-((3-(trifluoromethyl)phenyl)amino)benzamide], the melting point fell in the range of 74 to 75 °C. The molecule also registered an IC50 in data set [1] (SGC-7901, Table 3, MTT) of 47 ± 9.74 µM. Besides, in data set [1], the inhibition at 100 µM amounted to 72.3 ± 3.1%. The IC50 in data set [2] (A875, Table 3, MTT) is greater than 100 µM. The inhibition at 100 µM in data set [2] was 43.1 ± 2%. The molecule also showed an IC50 in data set [3] (HepG2, Table 3, MTT) greater than 100 µM. The inhibition at 100 µM in data set [3] was determined as 42.7 ± 3.1%. Besides, the IC50 in data set [4] (Table 3) is greater than 100 µM. In data set [5], the inhibition at 100 µM worked out at 7.5 ± 2.3%.
The molecule `CC(C)c1ccc(NC(=O)c2cccnc2Nc2cccc(C(F)(F)F)c2)cc1` [C2, N-(4-Isopropylphenyl)-2-((3-(trifluoromethyl)phenyl)amino)nicotinamide] displayed a melting point of 161 to 162 °C. The same molecule returned an IC50 in data set [1] (SGC-7901, Table 3, MTT) greater than 100 µM. For the same molecule, in data set [1], the inhibition at 100 µM came out at 26.9 ± 1.8%. In data set [2] (A875, Table 3, MTT), this molecule displayed an IC50 greater than 100 µM. Moreover, the inhibition at 100 µM in data set [2] is 42 ± 2.5%. Moreover, the concentration for half-maximal inhibition (IC50) in data set [3] (HepG2, Table 3, MTT) is greater than 100 µM. In addition, in data set [3], the inhibition at 100 µM came out at 13.1 ± 2.3%. The molecule also returned a half-inhibitory concentration (IC50) in data set [4] (Table 3) greater than 100 µM. The inhibition at 100 µM in data set [5] is 15.8 ± 1.9%.
With `O=C(Nc1ccccc1C(F)(F)F)c1ccccc1Nc1cccc(C(F)(F)F)c1` [C3, N-(2-(Trifluoromethyl)phenyl)-2-((3-(trifluoromethyl)phenyl)amino)benzamide], the melting point lay in the range of 82 to 83 °C. In data set [1] (SGC-7901, Table 3, MTT), this molecule registered an IC50 of 29.7 ± 4.03 µM. In addition, the inhibition at 100 µM in data set [1] was found to be 78.6 ± 2.9%. Further, in data set [2] (A875, Table 3, MTT), the IC50 was greater than 94 µM. Moreover, in data set [2], the inhibition at 100 µM was found to be 56.4 ± 2.5%. This molecule gave an IC50 in data set [3] (HepG2, Table 3, MTT) of 24.2 ± 3.21 µM. In addition, in data set [3], the inhibition at 100 µM worked out at 88.5 ± 3.2%. The molecule also gave a concentration for half-maximal inhibition (IC50) in data set [4] (Table 3) greater than 94 µM. For the same molecule, in data set [5], the inhibition at 100 µM worked out at 23.5 ± 2.1%.
Consider `O=C(Nc1ccc(C(F)(F)F)cc1)c1cccnc1Nc1cccc(C(F)(F)F)c1` [C8, N-(4-(Trifluoromethyl)phenyl)-2-((3-(trifluoromethyl)phenyl)amino)nicotinamide], for which the concentration for half-maximal inhibition (IC50) in data set [1] (SGC-7901, Table 3, MTT) was greater than 94 µM; in data set [2] (A875, Table 3, MTT) it was 55.6 ± 6.73 µM; in data set [3] (HepG2, Table 3, MTT), greater than 94 µM; in data set [4] (Table 3) it was 57.7 ± 8.87 µM. The inhibition at 100 µM was 51.2 ± 3.5% in data set [1], 56.5 ± 3.1% in data set [2], 42.4 ± 2.6% in data set [3] and 65.8 ± 2.6% in data set [5].
